ChEMBL document CHEMBL1275469, “VIM-15 and VIM-16, two new VIM-2-like metallo-beta-lactamases in Pseudomonas aeruginosa isolates from Bulgaria and Germany” (2008)
In brackets after ≈: the same amount, converted by molar mass.

Columns and labels:
Pseudomonas aeruginosa [1] = assay: Antimicrobial activity against Pseudomonas aeruginosa 166301 expressing beta-lactamase VIM-16 obtained from urine of patient by agar dilution method; type: functional
Escherichia coli [2] = assay: Antimicrobial activity against Escherichia coli DH5alpha harboring beta-lactamase VIM-15 by agar dilution method; type: functional; conditions: DH5[alpha]
Escherichia coli [3] = assay: Antimicrobial activity against Escherichia coli DH5alpha harboring beta-lactamase VIM-16 by agar dilution method; type: functional; conditions: DH5[alpha]
Escherichia coli [4] = assay: Antimicrobial activity against Escherichia coli DH5alpha harboring beta-lactamase VIM-2 by agar dilution method; type: functional; conditions: DH5[alpha]
Escherichia coli [5] = assay: Antimicrobial activity against Escherichia coli DH5alpha by agar dilution method; type: functional; conditions: DH5[alpha]
Pseudomonas aeruginosa [6] = assay: Activity of Pseudomonas aeruginosa 9551 beta-lactamase VIM-15
Pseudomonas aeruginosa [7] = assay: Ratio of Kcat to Km for Pseudomonas aeruginosa 9551 beta-lactamase VIM-15
Pseudomonas aeruginosa [8] = assay: Activity of Pseudomonas aeruginosa 166301 beta-lactamase VIM-16
Pseudomonas aeruginosa [9] = assay: Ratio of Kcat to Km for Pseudomonas aeruginosa 166301 beta-lactamase VIM-16
Pseudomonas aeruginosa [10] = assay: Activity of Pseudomonas aeruginosa 9551 beta-lactamase VIM-15 relative to cephaloridine
Pseudomonas aeruginosa [11] = assay: Activity of Pseudomonas aeruginosa 166301 beta-lactamase VIM-16 relative to cephaloridine
Pseudomonas aeruginosa [12] = assay: Ratio of Kcat to Km for Pseudomonas aeruginosa 166301 beta-lactamase VIM-16 relative to cephaloridine
Pseudomonas aeruginosa [13] = assay: microbe, parasite or virus in culture; conditions: Pseudomonas aeruginosa, 9551, Urine
Pseudomonas aeruginosa [14] = assay: Ratio of Kcat to Km for Pseudomonas aeruginosa 9551 beta-lactamase VIM-15 relative to cephaloridine
[15] = molecular target: Beta-lactamase VIM-2 (Pseudomonas aeruginosa) (UniProt Q9K2N0); assay: Activity of Pseudomonas aeruginosa COL-1 beta-lactamase VIM-2 relative to cephaloridine
[16] = molecular target: Beta-lactamase VIM-2 (Pseudomonas aeruginosa) (UniProt Q9K2N0); assay: Ratio of Kcat to Km for Pseudomonas aeruginosa COL-1 beta-lactamase VIM-2 relative to cephaloridine
Pseudomonas aeruginosa [17] = assay: Antimicrobial activity against Pseudomonas aeruginosa 9551 expressing beta-lactamase VIM-15 obtained from urine of patient by agar dilution method in presence of beta-lactamase inhibitor Tazobactam; type: functional; conditions: Pseudomonas aeruginosa, 9551, Urine
Pseudomonas aeruginosa [18] = assay: Antimicrobial activity against Pseudomonas aeruginosa 166301 expressing beta-lactamase VIM-16 obtained from urine of patient by agar dilution method in presence of beta-lactamase inhibitor Tazobactam; type: functional; conditions: Pseudomonas aeruginosa, 166301, Urine
Escherichia coli [19] = assay: Antimicrobial activity against Escherichia coli DH5alpha harboring beta-lactamase VIM-15 by agar dilution method in presence of beta-lactamase inhibitor Tazobactam; type: functional; conditions: DH5[alpha]
Escherichia coli [20] = assay: Antimicrobial activity against Escherichia coli DH5alpha harboring beta-lactamase VIM-16 by agar dilution method in presence of beta-lactamase inhibitor Tazobactam; type: functional; conditions: DH5[alpha]
Escherichia coli [21] = assay: Antimicrobial activity against Escherichia coli DH5alpha harboring beta-lactamase VIM-2 by agar dilution method in presence of beta-lactamase inhibitor Tazobactam; type: functional; conditions: DH5[alpha]
Escherichia coli [22] = assay: Antimicrobial activity against Escherichia coli DH5alpha by agar dilution method in presence of beta-lactamase inhibitor Tazobactam; type: functional; conditions: DH5[alpha]
[23] = Pseudomonas aeruginosa, 166301, Urine

Row | Compound | MIC (Pseudomonas aeruginosa [1]; [23]) | MIC (Escherichia coli [2]) | MIC (Escherichia coli [3]) | MIC (Escherichia coli [4]) | MIC (Escherichia coli [5]) | Km (Pseudomonas aeruginosa [6]) | kcat (Pseudomonas aeruginosa [6]) | kcat/Km (Pseudomonas aeruginosa [7]) | Km (Pseudomonas aeruginosa [8]) | kcat (Pseudomonas aeruginosa [8]) | kcat/Km (Pseudomonas aeruginosa [9]) | Activity (Pseudomonas aeruginosa [10]) | Activity (Pseudomonas aeruginosa [11]) | Activity (Pseudomonas aeruginosa [12]) | MIC (Pseudomonas aeruginosa [13]) | Activity (Pseudomonas aeruginosa [14]) | further results
1 | CO/N=C(\C(=O)N[C@@H]1C(=O)N2C(C(=O)[O-])=C(C[N+]3(C)CCCC3)CS[C@H]12)c1csc(N)n1 | 32 µg/mL (≈ 66.6 µM) | 0.03 µg/mL (≈ 0.0624 µM) | 0.03 µg/mL (≈ 0.0624 µM) | 0.03 µg/mL (≈ 0.0624 µM) | 0.016 µg/mL (≈ 0.0333 µM) | 130 µM | 9.5 s⁻¹ | 76000 M⁻¹ s⁻¹ | 210 µM | 0.31 s⁻¹ | 1500 M⁻¹ s⁻¹ | 5% | 0.35% | 2.3% | 32 µg/mL (≈ 66.6 µM) |  | 
2 | CC1(C)S[C@@H]2[C@H](NC(=O)Cc3ccccc3)C(=O)N2[C@H]1C(=O)O |  |  |  |  |  |  |  |  |  |  |  |  |  | 800% |  |  | 
3 | O=C(Cc1cccs1)N[C@@H]1C(=O)N2C(C(=O)[O-])=C(C[n+]3ccccc3)CS[C@H]12 |  |  |  |  |  | 83 µM | 190 s⁻¹ | 2.3e+06 M⁻¹ s⁻¹ | 1400 µM | 89 s⁻¹ | 64000 M⁻¹ s⁻¹ | 100% | 100% | 100% |  | 100% | Activity [15]: 100%; Activity [16]: 100%
4 | CC1(C)S[C@@H]2[C@H](NC(=O)[C@H](N)c3ccc(O)cc3)C(=O)N2[C@H]1C(=O)O [AMOXICILLIN] | > 512 µg/mL | 256 µg/mL (≈ 701 µM) | 256 µg/mL (≈ 701 µM) | 256 µg/mL (≈ 701 µM) | 4 µg/mL (≈ 10.9 µM) |  |  |  |  |  |  |  |  |  | 512 µg/mL (≈ 1400 µM) |  | 
5 | C[C@H]1[C@H](NC(=O)/C(=N\OC(C)(C)C(=O)O)c2csc(N)n2)C(=O)N1S(=O)(=O)O [AZTREONAM] | 32 µg/mL (≈ 73.5 µM) | 0.016 µg/mL (≈ 0.0367 µM) | 0.016 µg/mL (≈ 0.0367 µM) | 0.016 µg/mL (≈ 0.0367 µM) | 0.016 µg/mL (≈ 0.0367 µM) |  | < 0.031 s⁻¹ |  |  | < 0.11 s⁻¹ |  | < 0.016% | < 0.12% |  | 16 µg/mL (≈ 36.7 µM) |  | 
6 | CO/N=C(\C(=O)N[C@@H]1C(=O)N2C(C(=O)O)=C(COC(C)=O)CS[C@H]12)c1csc(N)n1 [CEFOTAXIME] | > 256 µg/mL | 4 µg/mL (≈ 8.78 µM) | 2 µg/mL (≈ 4.39 µM) | 1 µg/mL (≈ 2.2 µM) | 0.03 µg/mL (≈ 0.0659 µM) | 13 µM | 90 s⁻¹ | 6.9e+06 M⁻¹ s⁻¹ | 240 µM | 81 s⁻¹ | 340000 M⁻¹ s⁻¹ | 47% | 91% | 530% | > 256 µg/mL | 300% | 
7 | CC(C)(O/N=C(\C(=O)N[C@@H]1C(=O)N2C(C(=O)[O-])=C(C[n+]3ccccc3)CS[C@H]12)c1csc(N)n1)C(=O)O [CEFTAZIDIME] | 64 µg/mL (≈ 117 µM) | 0.5 µg/mL (≈ 0.915 µM) | 0.5 µg/mL (≈ 0.915 µM) | 1 µg/mL (≈ 1.83 µM) | 0.13 µg/mL (≈ 0.238 µM) | 37 µM | 1 s⁻¹ | 27000 M⁻¹ s⁻¹ | 150 µM | 0.22 s⁻¹ | 1400 M⁻¹ s⁻¹ | 0.53% | 0.25% | 2.2% | 64 µg/mL (≈ 117 µM) | 1.2% | 
8 | C[C@@H](O)[C@H]1C(=O)N2C(C(=O)O)=C(SCCNC=N)C[C@H]12 [IMIPENEM ANHYDROUS] | > 128 µg/mL | 0.5 µg/mL (≈ 1.67 µM) |  |  |  | 7.3 µM | 61 s⁻¹ | 8.4e+06 M⁻¹ s⁻¹ | 89 µM | 45 s⁻¹ | 510000 M⁻¹ s⁻¹ | 32% | 51% | 800% | > 128 µg/mL | 370% | Activity [15]: 17%; Activity [16]: 380%
9 | C[C@@H](O)[C@H]1C(=O)N2C(C(=O)O)=C(S[C@@H]3CN[C@H](C(=O)N(C)C)C3)[C@H](C)[C@H]12 [MEROPENEM] | > 128 µg/mL | 0.03 µg/mL (≈ 0.0782 µM) | 0.03 µg/mL (≈ 0.0782 µM) | 0.03 µg/mL (≈ 0.0782 µM) | 0.016 µg/mL (≈ 0.0417 µM) |  |  |  |  |  |  |  |  | 110% | 128 µg/mL (≈ 334 µM) |  | Activity [15]: 1.8%; Activity [16]: 62%
10 | CCN1CCN(C(=O)N[C@@H](C(=O)N[C@@H]2C(=O)N3[C@@H]2SC(C)(C)[C@@H]3C(=O)O)c2ccccc2)C(=O)C1=O [PIPERACILLIN] |  |  |  |  |  |  |  |  |  |  |  |  |  |  |  |  | MIC (Pseudomonas aeruginosa [17]): 128 µg/mL; MIC (Pseudomonas aeruginosa [18]): 128 µg/mL; MIC (Escherichia coli [19]): 8 µg/mL; MIC (Escherichia coli [20]): 8 µg/mL; MIC (Escherichia coli [21]): 4 µg/mL; MIC (Escherichia coli [22]): 1 µg/mL
11 | NC[C@H]1O[C@H](O[C@H]2[C@H](O)[C@@H](O[C@H]3O[C@H](CO)[C@@H](O)[C@H](N)[C@H]3O)[C@H](N)C[C@@H]2N)[C@H](N)C[C@@H]1O [TOBRAMYCIN] | > 128 µg/mL | 0.25 µg/mL (≈ 0.535 µM) | 0.25 µg/mL (≈ 0.535 µM) | 0.25 µg/mL (≈ 0.535 µM) | 0.25 µg/mL (≈ 0.535 µM) |  |  |  |  |  |  |  |  |  | 8 µg/mL (≈ 17.1 µM) |  | 
12 | GENTAMICIN |  | 0.13 µg/mL | 0.13 µg/mL | 0.13 µg/mL | 0.13 µg/mL |  |  |  |  |  |  |  |  |  |  |  | MIC (Pseudomonas aeruginosa [1]): > 128 µg/mL
